Data as given in US20230085307A1, “PYRIDAZINONE COMPOUND AND HERBICIDE” (NISSAN CHEMICAL CORPORATION, priority 2019, published 2023).

Experiments:
southern crabgrass = assay: Test Example 5: herbicidal effect by foliage application, plastic box (Table 20, symbol F); format: in vivo, southern crabgrass (Digitaria ciliaris)
How it was run: (§1)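 Plants were sown into sterilized diluvial soil under about 1.5 cm cover and kept in a greenhouse at 25° C. to 30° C. Fourteen days on, foliage received an even spray of the diluted emulsion. Herbicidal or crop effect was judged three weeks afterwards.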

green foxtail = assay: Test Example 5: herbicidal effect by foliage application, plastic box (Table 20, symbol G); format: in vivo, green foxtail (Setaria viridis)
How it was run: as §1

barnyard grass [1] = assay: Test Example 5: herbicidal effect by foliage application, plastic box (Table 20, symbol H); format: in vivo, barnyard grass (Echinochloa crus-galli)
How it was run: as §1

wild oat = assay: Test Example 5: herbicidal effect by foliage application, plastic box (Table 20, symbol I); format: in vivo, wild oat (Avena fatua)
How it was run: as §1

blackgrass = assay: Test Example 5: herbicidal effect by foliage application, plastic box (Table 20, symbol J); format: in vivo, blackgrass (Alopecurus myosuroides)
How it was run: as §1

Italian ryegrass = assay: Test Example 5: herbicidal effect by foliage application, plastic box (Table 20, symbol K); format: in vivo, Italian ryegrass (Lolium multiflorum)
How it was run: as §1

windgrass = assay: Test Example 5: herbicidal effect by foliage application, plastic box (Table 20, symbol L); format: in vivo, windgrass (Apera spica-venti); details: for L: windgrass, herbicidal effect: three weeks after application
How it was run: as §1

velvetleaf = assay: Test Example 5: herbicidal effect by foliage application, plastic box (Table 20, symbol M); format: in vivo, velvetleaf (Abutilon theophrasti)
How it was run: as §1

redroot pigweed = assay: Test Example 5: herbicidal effect by foliage application, plastic box (Table 20, symbol N); format: in vivo, redroot pigweed (Amaranthus retroflexus)
How it was run: as §1

lambsquarters = assay: Test Example 5: herbicidal effect by foliage application, plastic box (Table 20, symbol O); format: in vivo, lambsquarters (Chenopodium album)
How it was run: as §1

chickweed = assay: Test Example 5: herbicidal effect by foliage application, plastic box (Table 20, symbol P); format: in vivo, common chickweed (Stellaria media)
Source text: [Test Example 5] Herbicidal Effect Test by Foliage Application
Sterilized diluvial soil was placed in a plastic box having a length of 21 cm, a width of 13 cm, and a depth of 7 cm. The seeds of each of southern crabgrass, green foxtail, barnyard grass, wild oat, blackgrass, Italian ryegrass, windgrass, velvetleaf, redroot pigweed, lambsquarters, chickweed, false cleavers, persian speedwell, corn, soybean, rice, wheat, beet, and rapeseed were sowed in a spot-like manner and covered with the soil having a thickness of about 1.5 cm. Thereafter, the plants were grown in a greenhouse at 25° C. to 30° C. After 14-day growth of the plants, the emulsion agent of the compound of the present invention prepared according to Formulation Example 2 was diluted with water so as to achieve a predetermined herbicide amount, and the diluted emulsion agent was uniformly applied to a foliage part with a small-sized spray. Three weeks after the herbicide application, the effect of the herbicide on each plant was evaluated according to the criteria of Test Example 1.

persian speedwell = assay: Test Example 5: herbicidal effect by foliage application, plastic box (Table 20, symbol R); format: in vivo, Persian speedwell (Veronica persica); details: foliage application
How it was run: as §1

barnyard grass [2] = assay: Test Example 3: herbicidal effect by foliage application, Wagner pot (Table 18, symbol H); format: in vivo, barnyard grass (Echinochloa crus-galli)
How it was run: (§2)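 Plants were sown in alluvial soil held under 0.1–0.5 cm standing water and grown 14 days in a greenhouse at 25–30 °C. An emulsifiable formulation, water-diluted to the set dose, was then sprayed onto the foliage, and effects were scored three weeks later using previously defined criteria.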

Chinese sprangletop = assay: Test Example 3: herbicidal effect by foliage application, Wagner pot (Table 18, symbol D); format: in vivo, chinese sprangletop (Leptochloa chinensis)
How it was run: as §2

rice flat sedge = assay: Test Example 3: herbicidal effect by foliage application, Wagner pot (Table 18, symbol E); format: in vivo, rice flat sedge (Cyperus iria)
How it was run: as §2

[3] = foliage application, AAH 80 g/ha, three weeks after application
[4] = foliage application, AAH 320 g/ha, three weeks after application
[5] = foliage application, 99 g/ha, three weeks after application
[6] = amount of applied herbicide 320 g/ha
[7] = foliage application, AAH 320 g/ha, evaluated three weeks after application
[8] = amount of applied herbicide 320 g/ha, foliage application after 14-day growth, evaluated three weeks after application
[9] = foliage application, 320 g/ha, evaluated three weeks after application

## COc1cc(OC)cc(-c2sc3ccccc3c2-c2c(O)c(OC)nn(C)c2=O)c1 [1-184]
Southern crabgrass; [3]
  F: southern crabgrass, herbicidal effect: 0 (Herbicidal rate of 5% or less (almost no effect))
Green foxtail; [3]
  G: green foxtail, herbicidal effect: 0 (Herbicidal rate of 5% or less (almost no effect))
Barnyard grass [1]; [3]
  H: barnyard grass, herbicidal effect: 0 (Herbicidal rate of 5% or less (almost no effect))
Wild oat; [3]
  I: wild oat, herbicidal effect: 0 (Herbicidal rate of 5% or less (almost no effect))
blackgrass; [3]
  J: blackgrass, herbicidal effect: 0 (Herbicidal rate of 5% or less (almost no effect))
Italian ryegrass; [3]
  K: Italian ryegrass, herbicidal effect: 0 (Herbicidal rate of 5% or less (almost no effect))
windgrass; foliage application, AAH 80 g/ha
  L: windgrass, herbicidal effect: 0 (Herbicidal rate of 5% or less (almost no effect))
velvetleaf; [3]
  M: velvetleaf, herbicidal effect: 0 (Herbicidal rate of 5% or less (almost no effect))
Redroot pigweed; [3]
  N: redroot pigweed, herbicidal effect: 0 (Herbicidal rate of 5% or less (almost no effect))
lambsquarters; [3]
  O: lambsquarters, herbicidal effect: 0 (Herbicidal rate of 5% or less (almost no effect))
chickweed; [3]
  P: chickweed, herbicidal effect: 4 (Herbicidal rate of 70% or more and less than 90%)
Persian speedwell; AAH 80 g/ha, three weeks after application
  R: persian speedwell, herbicidal effect: 0 (Herbicidal rate of 5% or less (almost no effect))

## Cc1nn(C)c(=O)c(-c2c(-c3ccc(OCC(=O)NCC(F)(F)F)cc3)sc3ccccc23)c1O [1-145]
Southern crabgrass; [4]
  F: southern crabgrass, herbicidal effect: 0 (Herbicidal rate of 5% or less (almost no effect))
Green foxtail; [4]
  G: green foxtail, herbicidal effect: 0 (Herbicidal rate of 5% or less (almost no effect))
Barnyard grass [1]; [4]
  H: barnyard grass, herbicidal effect: 0 (Herbicidal rate of 5% or less (almost no effect))
Wild oat; [4]
  I: wild oat, herbicidal effect: 0 (Herbicidal rate of 5% or less (almost no effect))
blackgrass; [4]
  J: blackgrass, herbicidal effect: 0 (Herbicidal rate of 5% or less (almost no effect))
Italian ryegrass; [4]
  K: Italian ryegrass, herbicidal effect: 0 (Herbicidal rate of 5% or less (almost no effect))
windgrass; foliage application, AAH 320 g/ha
  L: windgrass, herbicidal effect: 0 (Herbicidal rate of 5% or less (almost no effect))
velvetleaf; [4]
  M: velvetleaf, herbicidal effect: 0 (Herbicidal rate of 5% or less (almost no effect))
Redroot pigweed; [4]
  N: redroot pigweed, herbicidal effect: 0 (Herbicidal rate of 5% or less (almost no effect))
lambsquarters; [4]
  O: lambsquarters, herbicidal effect: 0 (Herbicidal rate of 5% or less (almost no effect))
chickweed; [4]
  P: chickweed, herbicidal effect: 3 (Herbicidal rate of 40% or more and less than 70%)
Persian speedwell; AAH 320 g/ha, three weeks after application
  R: persian speedwell, herbicidal effect: 0 (Herbicidal rate of 5% or less (almost no effect))

## COc1c(C)cccc1-c1sc2ccccc2c1-c1c(O)c(C)nn(C)c1=O [1-067]
Barnyard grass [2]; 99 g/ha
  herbicidal effect on H (barnyard grass), rating 0-5: 3 (Herbicidal rate of 40% or more and less than 70%)
Chinese sprangletop; 99 g/ha
  herbicidal effect on D (Chinese sprangletop), rating 0-5: 0 (Herbicidal rate of 5% or less (almost no effect))
Rice flat sedge; 99 g/ha
  herbicidal effect on E (rice flat sedge), rating 0-5: 0 (Herbicidal rate of 5% or less (almost no effect))
Southern crabgrass; [5]
  herbicidal effect grade, F: southern crabgrass: 0 (Herbicidal rate of 5% or less (almost no effect))
Green foxtail; [5]
  herbicidal effect grade, G: green foxtail: 0 (Herbicidal rate of 5% or less (almost no effect))
Barnyard grass [1]; [5]
  herbicidal effect grade, H: barnyard grass: 0 (Herbicidal rate of 5% or less (almost no effect))
Wild oat; [5]
  herbicidal effect grade, I: wild oat: 0 (Herbicidal rate of 5% or less (almost no effect))
blackgrass; [5]
  herbicidal effect grade, J: blackgrass: 0 (Herbicidal rate of 5% or less (almost no effect))
Italian ryegrass; [5]
  herbicidal effect grade, K: Italian ryegrass: 0 (Herbicidal rate of 5% or less (almost no effect))
velvetleaf; [5]
  herbicidal effect grade, M: velvetleaf: 2 (Herbicidal rate of 20% or more and less than 40%)
Redroot pigweed; [5]
  herbicidal effect grade, N: redroot pigweed: 1 (Herbicidal rate of 5% or more and less than 20%)
lambsquarters; [5]
  herbicidal effect grade, O: lambsquarters: 0 (Herbicidal rate of 5% or less (almost no effect))
chickweed; [5]
  herbicidal effect grade, P: chickweed: 2 (Herbicidal rate of 20% or more and less than 40%)
Persian speedwell; 99 g/ha, three weeks after application
  herbicidal effect grade, R: persian speedwell: 0 (Herbicidal rate of 5% or less (almost no effect))

## C=CCOc1c(C)nn(C)c(=O)c1-c1c(-c2ccc(OC(F)F)cc2)sc2ccc(F)cc12 [2-300]
Barnyard grass [2]; [6]
  herbicidal effect on H: barnyard grass: 3 (Herbicidal rate of 40% or more and less than 70%)
Rice flat sedge; [6]
  herbicidal effect on E: rice flat sedge: 3 (Herbicidal rate of 40% or more and less than 70%)
Southern crabgrass; [7]
  F: southern crabgrass, herbicidal effect (criteria 0-5): 0 (Herbicidal rate of 5% or less (almost no effect))
Green foxtail; [7]
  G: green foxtail, herbicidal effect (criteria 0-5): 0 (Herbicidal rate of 5% or less (almost no effect))
Barnyard grass [1]; [7]
  H: barnyard grass, herbicidal effect (criteria 0-5): 0 (Herbicidal rate of 5% or less (almost no effect))
Wild oat; [7]
  I: wild oat, herbicidal effect (criteria 0-5): 0 (Herbicidal rate of 5% or less (almost no effect))
blackgrass; [7]
  J: blackgrass, herbicidal effect (criteria 0-5): 0 (Herbicidal rate of 5% or less (almost no effect))
Italian ryegrass; [7]
  K: Italian ryegrass, herbicidal effect (criteria 0-5): 0 (Herbicidal rate of 5% or less (almost no effect))
velvetleaf; [7]
  M: velvetleaf, herbicidal effect (criteria 0-5): 1 (Herbicidal rate of 5% or more and less than 20%)
Redroot pigweed; [7]
  N: redroot pigweed, herbicidal effect (criteria 0-5): 3 (Herbicidal rate of 40% or more and less than 70%)
lambsquarters; [7]
  O: lambsquarters, herbicidal effect (criteria 0-5): 5 (Herbicidal rate of 90% or more (almost completely withered))
chickweed; [7]
  P: chickweed, herbicidal effect (criteria 0-5): 5 (Herbicidal rate of 90% or more (almost completely withered))
Persian speedwell; AAH 320 g/ha, evaluated three weeks after application
  R: persian speedwell, herbicidal effect (criteria 0-5): 5 (Herbicidal rate of 90% or more (almost completely withered))

## CCCC(=O)Oc1c(C)nn(C)c(=O)c1-c1c(-c2ccccc2OCOC)sc2c(Cl)cccc12 [4-084]
Barnyard grass [2]; 320 g/ha
  herbicidal effect on barnyard grass (H): 5 (Herbicidal rate of 90% or more (almost completely withered))
Chinese sprangletop; 320 g/ha
  herbicidal effect on Chinese sprangletop (D): 4 (Herbicidal rate of 70% or more and less than 90%)
Rice flat sedge; 320 g/ha
  herbicidal effect on rice flat sedge (E): 4 (Herbicidal rate of 70% or more and less than 90%)
Southern crabgrass; [8]
  Herbicidal effect by foliage application, F: southern crabgrass: 3 (Herbicidal rate of 40% or more and less than 70%)
Green foxtail; [8]
  Herbicidal effect by foliage application, G: green foxtail: 2 (Herbicidal rate of 20% or more and less than 40%)
Barnyard grass [1]; [8]
  Herbicidal effect by foliage application, H: barnyard grass: 3 (Herbicidal rate of 40% or more and less than 70%)
Wild oat; [8]
  Herbicidal effect by foliage application, I: wild oat: 0 (Herbicidal rate of 5% or less (almost no effect))
blackgrass; [8]
  Herbicidal effect by foliage application, J: blackgrass: 0 (Herbicidal rate of 5% or less (almost no effect))
Italian ryegrass; [8]
  Herbicidal effect by foliage application, K: Italian ryegrass: 0 (Herbicidal rate of 5% or less (almost no effect))
windgrass; [8]
  Herbicidal effect by foliage application, L: windgrass: 0 (Herbicidal rate of 5% or less (almost no effect))
velvetleaf; [8]
  Herbicidal effect by foliage application, M: velvetleaf: 4 (Herbicidal rate of 70% or more and less than 90%)
Redroot pigweed; [8]
  Herbicidal effect by foliage application, N: redroot pigweed: 5 (Herbicidal rate of 90% or more (almost completely withered))
lambsquarters; [8]
  Herbicidal effect by foliage application, O: lambsquarters: 0 (Herbicidal rate of 5% or less (almost no effect))
chickweed; [8]
  Herbicidal effect by foliage application, P: chickweed: 4 (Herbicidal rate of 70% or more and less than 90%)

## CCCC(=O)Oc1c(C)nn(C)c(=O)c1-c1c(-c2ccccc2SC)sc2ccc(C)cc12 [2-143]
Southern crabgrass; [9]
  herbicidal effect on F: southern crabgrass (criteria 0-5): 0 (Herbicidal rate of 5% or less (almost no effect))
Green foxtail; [9]
  herbicidal effect on G: green foxtail (criteria 0-5): 0 (Herbicidal rate of 5% or less (almost no effect))
Barnyard grass [1]; [9]
  herbicidal effect on H: barnyard grass (criteria 0-5): 0 (Herbicidal rate of 5% or less (almost no effect))
Wild oat; [9]
  herbicidal effect on I: wild oat (criteria 0-5): 0 (Herbicidal rate of 5% or less (almost no effect))
blackgrass; [9]
  herbicidal effect on J: blackgrass (criteria 0-5): 0 (Herbicidal rate of 5% or less (almost no effect))
Italian ryegrass; [9]
  herbicidal effect on K: Italian ryegrass (criteria 0-5): 0 (Herbicidal rate of 5% or less (almost no effect))
windgrass; [9]
  herbicidal effect on L: windgrass (criteria 0-5): 0 (Herbicidal rate of 5% or less (almost no effect))
velvetleaf; [9]
  herbicidal effect on M: velvetleaf (criteria 0-5): 0 (Herbicidal rate of 5% or less (almost no effect))
Redroot pigweed; [9]
  herbicidal effect on N: redroot pigweed (criteria 0-5): 0 (Herbicidal rate of 5% or less (almost no effect))
lambsquarters; [9]
  herbicidal effect on O: lambsquarters (criteria 0-5): 0 (Herbicidal rate of 5% or less (almost no effect))
chickweed; [9]
  herbicidal effect on P: chickweed (criteria 0-5): 3 (Herbicidal rate of 40% or more and less than 70%)
Persian speedwell; 320 g/ha, evaluated three weeks after application
  herbicidal effect on R: persian speedwell (criteria 0-5): 0 (Herbicidal rate of 5% or less (almost no effect))
